Data reported in PubChem BioAssay AID2060503 (Molecular Pharmacology Branch, DTP, NCI, 2025).

System: 817829-284-R-J1-PDC complex spheroids, viability
Assay: Anticancer human tumor 817829-284-R-J1-PDC patient-derived colon adenocarcinoma cell line growth inhibition [GQUAD]
Settings: for IC50: curve of first compound; for viability, T/C: stronger effect = lower value
Procedure, shortened: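 Tumor cells were grown as complex spheroids with HUVEC endothelial cells and mesenchymal stem cells as stroma. G-quadruplex stabilizers were combined with targeted agents over half-log dilutions from near the clinical Cmax, or from 10 microM.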

[1] = second compound 0.0316 µM, first compound 0.0316 µM
[2] = second compound 0.0316 µM, first compound 0.316 µM
[3] = second compound 0.1 µM, first compound 0.0316 µM
[4] = second compound 0.1 µM, first compound 0.316 µM
[5] = second compound 0.316 µM, first compound 0.0316 µM
[6] = second compound 0.316 µM, first compound 0.316 µM
[7] = second compound 1 µM, first compound 0.0316 µM
[8] = second compound 1 µM, first compound 0.316 µM
[9] = second compound 3.16 µM, first compound 0.0316 µM
[10] = second compound 3.16 µM, first compound 0.316 µM
[11] = second compound 10 µM, first compound 0.0316 µM
[12] = second compound 10 µM, first compound 0.316 µM
[13] = second compound 0.0316 µM, first compound 0.1 µM
[14] = second compound 0.0316 µM, first compound 1 µM
[15] = second compound 0.0316 µM, first compound 3.16 µM
[16] = second compound 0.0316 µM, first compound 10 µM
[17] = second compound 0.1 µM, first compound 0.1 µM
[18] = second compound 0.1 µM, first compound 1 µM
[19] = second compound 0.1 µM, first compound 3.16 µM
[20] = second compound 0.1 µM, first compound 10 µM
[21] = second compound 0.316 µM, first compound 0.1 µM
[22] = second compound 0.316 µM, first compound 1 µM
[23] = second compound 0.316 µM, first compound 3.16 µM
[24] = second compound 0.316 µM, first compound 10 µM
[25] = second compound 1 µM, first compound 0.1 µM
[26] = second compound 1 µM, first compound 1 µM
[27] = second compound 1 µM, first compound 3.16 µM
[28] = second compound 1 µM, first compound 10 µM
[29] = second compound 3.16 µM, first compound 0.1 µM
[30] = second compound 3.16 µM, first compound 1 µM
[31] = second compound 3.16 µM, first compound 3.16 µM
[32] = second compound 3.16 µM, first compound 10 µM
[33] = second compound 10 µM, first compound 0.1 µM
[34] = second compound 10 µM, first compound 1 µM
[35] = second compound 10 µM, first compound 3.16 µM
[36] = second compound 10 µM, first compound 10 µM
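Further: spheroids exposed to agents for 7 days before readout.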
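Wherever viability, T/C is given: percent viability relative to DMSO vehicle control taken as 100%.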

For CC[C@@]1(O)C(=O)OCc2c1cc1n(c2=O)Cc2cc3c(CN(C)C)c(O)ccc3nc2-1 + CN(C)c1ccc(Nc2c3ccc(NC(=O)CCN4CCCC4)cc3nc3cc(NC(=O)CCN4CCCC4)ccc23)cc1, the IC50 (second compound 0.0316 µM) was 67.8 nM, the IC50 (second compound 0.1 µM) was 59 nM and the IC50 (second compound 0.316 µM) was 67.9 nM. The IC50 (second compound 1 µM) was 63.7 nM, the IC50 (second compound 3.16 µM) was 68.3 nM and the IC50 (second compound 10 µM) was 75.7 nM. The viability, T/C (second compound 0.0316 µM, first compound 0.000999 µM) was 80.2%, the viability, T/C (second compound 0.0316 µM, first compound 0.00316 µM) was 104% and the viability, T/C (second compound 0.0316 µM, first compound 0.00999 µM) was 94.8%. The viability, T/C [1] was 65.9%, the viability, T/C (second compound 0.0316 µM, first compound 0.0999 µM) was 45.4% and the viability, T/C [2] was 35.5%. The viability, T/C (second compound 0.1 µM, first compound 0.000999 µM) was 97.1%, the viability, T/C (second compound 0.1 µM, first compound 0.00316 µM) was 122% and the viability, T/C (second compound 0.1 µM, first compound 0.00999 µM) was 108%. It also gave a viability, T/C [3] of 59.8%, a viability, T/C (second compound 0.1 µM, first compound 0.0999 µM) of 44.5% and a viability, T/C [4] of 38.5%. For the same compound, the viability, T/C (second compound 0.316 µM, first compound 0.000999 µM) was 89.7%, the viability, T/C (second compound 0.316 µM, first compound 0.00316 µM) was 123% and the viability, T/C (second compound 0.316 µM, first compound 0.00999 µM) was 107%. The viability, T/C [5] was 66.7%, the viability, T/C (second compound 0.316 µM, first compound 0.0999 µM) was 46.4% and the viability, T/C [6] was 35.6%. For the same compound, the viability, T/C (second compound 1 µM, first compound 0.000999 µM) was 111%, the viability, T/C (second compound 1 µM, first compound 0.00316 µM) was 108% and the viability, T/C (second compound 1 µM, first compound 0.00999 µM) was 105%. It also gave a viability, T/C [7] of 62.9%, a viability, T/C (second compound 1 µM, first compound 0.0999 µM) of 45.9% and a viability, T/C [8] of 34%. For the same compound, the viability, T/C (second compound 3.16 µM, first compound 0.000999 µM) was 114%, the viability, T/C (second compound 3.16 µM, first compound 0.00316 µM) was 99.9% and the viability, T/C (second compound 3.16 µM, first compound 0.00999 µM) was 101%. The viability, T/C [9] was 67.7%, the viability, T/C (second compound 3.16 µM, first compound 0.0999 µM) was 41.5% and the viability, T/C [10] was 32.4%. It also gave a viability, T/C (second compound 10 µM, first compound 0.000999 µM) of 102%, a viability, T/C (second compound 10 µM, first compound 0.00316 µM) of 101% and a viability, T/C (second compound 10 µM, first compound 0.00999 µM) of 84%. It also gave a viability, T/C [11] of 65.8%, a viability, T/C (second compound 10 µM, first compound 0.0999 µM) of 45.6% and a viability, T/C [12] of 30.3%.
In the case of O=C(c1cc(Cc2n[nH]c(=O)c3ccccc23)ccc1F)N1CCN(C(=O)C2CC2)CC1 + Cc1[nH]c2ccc(F)cc2c1-c1nc2c3cccnc3c3ncccc3c2[nH]1, the IC50 (second compound 0.0316 µM) is reported as > 10000 nM, the IC50 (second compound 0.1 µM) is reported as > 10000 nM and the IC50 (second compound 0.316 µM) is reported as > 10000 nM. For the same compound, the IC50 (second compound 1 µM) was > 10000 nM, the IC50 (second compound 3.16 µM) was 4160 nM and the IC50 (second compound 10 µM) was 1070 nM. It also gave a viability, T/C [1] of 103%, a viability, T/C [13] of 85.7% and a viability, T/C [2] of 106%. For the same compound, the viability, T/C [14] was 87.3%, the viability, T/C [15] was 97.2% and the viability, T/C [16] was 63.3%. It also gave a viability, T/C [3] of 94%, a viability, T/C [17] of 109% and a viability, T/C [4] of 88.3%. It also gave a viability, T/C [18] of 98.8%, a viability, T/C [19] of 95.5% and a viability, T/C [20] of 60%. For the same compound, the viability, T/C [5] was 97.7%, the viability, T/C [21] was 99.7% and the viability, T/C [6] was 97.9%. For the same compound, the viability, T/C [22] was 96.6%, the viability, T/C [23] was 95.4% and the viability, T/C [24] was 60.8%. The viability, T/C [7] was 85.9%, the viability, T/C [25] was 115% and the viability, T/C [8] was 97.8%. The viability, T/C [26] was 97.4%, the viability, T/C [27] was 89.4% and the viability, T/C [28] was 62%. The viability, T/C [9] was 98.9%, the viability, T/C [29] was 98.5% and the viability, T/C [10] was 97.3%. It also gave a viability, T/C [30] of 93.8%, a viability, T/C [31] of 54.5% and a viability, T/C [32] of 35.6%. For the same compound, the viability, T/C [11] was 45.4%, the viability, T/C [33] was 46.9% and the viability, T/C [12] was 56.7%. It also gave a viability, T/C [34] of 54.7%, a viability, T/C [35] of 37.6% and a viability, T/C [36] of 20.7%.
With CCCS(=O)(=O)Nc1ccc(F)c(C(=O)c2c[nH]c3ncc(-c4ccc(Cl)cc4)cc23)c1F + Cc1cnc(CNC(=O)c2c(=O)c3ccc(N4CCCN(C)CC4)nc3n3c2sc2ccccc23)cn1 the IC50 (second compound 0.0316 µM) was 44.8 nM, the IC50 (second compound 0.1 µM) was < 31.6 nM and the IC50 (second compound 0.316 µM) was < 31.6 nM. For the same compound, the IC50 (second compound 1 µM) was < 31.6 nM, the IC50 (second compound 3.16 µM) was < 31.6 nM and the IC50 (second compound 10 µM) was < 31.6 nM. For the same compound, the viability, T/C [1] was 57.4%, the viability, T/C [13] was 33.9% and the viability, T/C [2] was 34.4%. The viability, T/C [14] was 28.3%, the viability, T/C [15] was 30.9% and the viability, T/C [16] was 11.8%. It also gave a viability, T/C [3] of 20.7%, a viability, T/C [17] of 21.9% and a viability, T/C [4] of 15.6%. It also gave a viability, T/C [18] of 14.8%, a viability, T/C [19] of 12.5% and a viability, T/C [20] of 10.2%. For the same compound, the viability, T/C [5] was 19.2%, the viability, T/C [21] was 20% and the viability, T/C [6] was 17.1%. For the same compound, the viability, T/C [22] was 16.7%, the viability, T/C [23] was 15.7% and the viability, T/C [24] was 10.7%. It also gave a viability, T/C [7] of 16.7%, a viability, T/C [25] of 19.7% and a viability, T/C [8] of 18.6%. It also gave a viability, T/C [26] of 14.5%, a viability, T/C [27] of 14.5% and a viability, T/C [28] of 6.86%. It also gave a viability, T/C [9] of 18%, a viability, T/C [29] of 17.4% and a viability, T/C [10] of 15.1%. The viability, T/C [30] was 12.9%, the viability, T/C [31] was 12.2% and the viability, T/C [32] was 2.83%. For the same compound, the viability, T/C [11] was 0.09%, the viability, T/C [33] was 0.13% and the viability, T/C [12] was 0.17%. It also gave a viability, T/C [34] of 0.16%, a viability, T/C [35] of 0.17% and a viability, T/C [36] of 0.17%.
